Source: patent US9963442B2, “Pyridones as herbicides” (E I DU PONT DE NEMOURS AND COMPANY, priority 2014, dated 2018)

Legend:
[1] = test system: velvetleaf (Abutilon theophrasti); assay: Test C postemergence; format: in vivo; details: scale 0 to 100, 0 is no effect, 100 is complete control
Method in brief: (§1)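 Plants are treated pre- or postemergence with test chemical in a solvent mixture plus surfactant and kept in a greenhouse for 13–15 days. Injury is then rated visually relative to untreated plants on a 0–100 scale.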

wild oat (Avena fatua) = assay: Test C postemergence; format: in vivo; details: scale 0 to 100, 0 is no effect, 100 is complete control
Method in brief: as §1

[2] = test system: winter wheat (Triticum aestivum); assay: Test C postemergence; format: in vivo; details: scale 0 to 100, 0 is no effect, 100 is complete control
Method in brief: as §1

corn (Zea mays) = assay: Test C postemergence; format: in vivo; details: scale 0 to 100, 0 is no effect, 100 is complete control
Method in brief: as §1

kochia (Kochia scoparia) = assay: Test C postemergence; format: in vivo; details: scale 0 to 100, 0 is no effect, 100 is complete control
Method in brief: as §1

[3] = test system: lambsquarters (Chenopodium album); assay: Test C postemergence; format: in vivo; details: scale 0 to 100, 0 is no effect, 100 is complete control
Method in brief: as §1

[4] = test system: waterhemp (common waterhemp, Amaranthus rudis); assay: Test C postemergence; format: in vivo; details: scale 0 to 100, 0 is no effect, 100 is complete control
Method in brief: as §1

[5] = test system: blackgrass (Alopecurus myosuroides); assay: Test C postemergence; format: in vivo; details: scale 0 to 100, 0 is no effect, 100 is complete control
Method in brief: as §1

[6] = test system: Italian ryegrass (Lolium multiflorum); assay: Test C postemergence; format: in vivo; details: scale 0 to 100, 0 is no effect, 100 is complete control
Method in brief: as §1

[7] = test system: ragweed (common ragweed, Ambrosia elatior); assay: Test C postemergence; format: in vivo; details: scale 0 to 100, 0 is no effect, 100 is complete control
Method in brief: as §1

soybean (Glycine max) = assay: Test C postemergence; format: in vivo; details: scale 0 to 100, 0 is no effect, 100 is complete control
Method in brief: as §1

[8] = test system: galium (catchweed bedstraw, Galium aparine); assay: Test C postemergence; format: in vivo; details: scale 0 to 100, 0 is no effect, 100 is complete control
Method in brief: as §1

[9] = test system: large (Lg) crabgrass (Digitaria sanguinalis); assay: Test C postemergence; format: in vivo; details: scale 0 to 100, 0 is no effect, 100 is complete control
Method in brief: as §1

[10] = test system: chickweed (common chickweed, Stellaria media); assay: Test C postemergence; format: in vivo; details: scale 0 to 100, 0 is no effect, 100 is complete control
Method in brief: as §1

[11] = test system: morningglory (Ipomoea coccinea); assay: Test C postemergence; format: in vivo; details: scale 0 to 100, 0 is no effect, 100 is complete control
Method in brief: as §1

[12] = test system: oilseed rape (Brassica napus); assay: Test C postemergence; format: in vivo; details: scale 0 to 100, 0 is no effect, 100 is complete control
Method in brief: as §1

[13] = test system: barnyardgrass (Echinochloa crus-galli); assay: Test C postemergence; format: in vivo; details: scale 0 to 100, 0 is no effect, 100 is complete control
Method in brief: as §1

[14] = test system: johnsongrass (Sorghum halepense); assay: Test C postemergence; format: in vivo; details: scale 0 to 100, 0 is no effect, 100 is complete control
Method in brief: as §1

[15] = test system: pigweed (Amaranthus retroflexus); assay: Test C postemergence; format: in vivo; details: scale 0 to 100, 0 is no effect, 100 is complete control
Method in brief: as §1

O=c1cccc(Oc2ncc(Cl)cn2)n1-c1ccc(Cl)cc1 [Compound 1, 1-(4-chlorophenyl)-6-[(5-chloro-2-pyrimidinyl)oxy]-2(1H)-pyridinone]
55: Plant response rating, Lambsquarters ([3]; 125 g ai/ha)
15: Plant response rating, Lambsquarters ([3]; 16 g ai/ha) | Plant response rating, Lambsquarters ([3]; 31 g ai/ha) | Plant response rating, Soybean (soybean (Glycine max); 16 g ai/ha) | Plant response rating, Crabgrass, Large ([9]; 31 g ai/ha) | Plant response rating, Crabgrass, Large ([9]; 62 g ai/ha)
5: Plant response rating, Oat, Wild (wild oat (Avena fatua); 16 g ai/ha) | Plant response rating, Oat, Wild (wild oat (Avena fatua); 31 g ai/ha) | Plant response rating, Oat, Wild (wild oat (Avena fatua); 62 g ai/ha) | Plant response rating, Wheat ([2]; 31 g ai/ha) | Plant response rating, Wheat ([2]; 62 g ai/ha) | Plant response rating, Corn (corn (Zea mays); 16 g ai/ha) | Plant response rating, Corn (corn (Zea mays); 31 g ai/ha) | Plant response rating, Blackgrass ([5]; 16 g ai/ha) | Plant response rating, Blackgrass ([5]; 31 g ai/ha) | Plant response rating, Blackgrass ([5]; 62 g ai/ha) | Plant response rating, Blackgrass ([5]; 125 g ai/ha) | Plant response rating, Ryegrass, Italian ([6]; 16 g ai/ha) | Plant response rating, Ryegrass, Italian ([6]; 31 g ai/ha) | Plant response rating, Ryegrass, Italian ([6]; 62 g ai/ha) | Plant response rating, Barnyardgrass ([13]; 16 g ai/ha) | Plant response rating, Barnyardgrass ([13]; 31 g ai/ha) | Plant response rating, Johnsongrass ([14]; 31 g ai/ha) | Plant response rating, Johnsongrass ([14]; 62 g ai/ha) | Plant response rating, Johnsongrass ([14]; 125 g ai/ha)
85: Plant response rating, Galium ([8]; 125 g ai/ha)
10: Plant response rating, Velvetleaf ([1]; 16 g ai/ha) | Plant response rating, Velvetleaf ([1]; 31 g ai/ha) | Plant response rating, Oat, Wild (wild oat (Avena fatua); 125 g ai/ha) | Plant response rating, Wheat ([2]; 125 g ai/ha) | Plant response rating, Corn (corn (Zea mays); 62 g ai/ha) | Plant response rating, Corn (corn (Zea mays); 125 g ai/ha) | Plant response rating, Ryegrass, Italian ([6]; 125 g ai/ha) | Plant response rating, Ragweed ([7]; 16 g ai/ha) | Plant response rating, Crabgrass, Large ([9]; 16 g ai/ha) | Plant response rating, Chickweed ([10]; 16 g ai/ha) | Plant response rating, Chickweed ([10]; 31 g ai/ha) | Plant response rating, Morningglory ([11]; 16 g ai/ha) | Plant response rating, Oilseed Rape ([12]; 16 g ai/ha) | Plant response rating, Barnyardgrass ([13]; 62 g ai/ha) | Plant response rating, Barnyardgrass ([13]; 125 g ai/ha)
70: Plant response rating, Waterhemp ([4]; 62 g ai/ha) | Plant response rating, Ragweed ([7]; 31 g ai/ha) | Plant response rating, Soybean (soybean (Glycine max); 125 g ai/ha) | Plant response rating, Oilseed Rape ([12]; 62 g ai/ha)
25: Plant response rating, Velvetleaf ([1]; 125 g ai/ha) | Plant response rating, Waterhemp ([4]; 16 g ai/ha)
45: Plant response rating, Lambsquarters ([3]; 62 g ai/ha) | Plant response rating, Galium ([8]; 31 g ai/ha)
35: Plant response rating, Ragweed ([7]; 62 g ai/ha) | Plant response rating, Soybean (soybean (Glycine max); 31 g ai/ha) | Plant response rating, Pigweed ([15]; 16 g ai/ha)
30: Plant response rating, Soybean (soybean (Glycine max); 62 g ai/ha) | Plant response rating, Oilseed Rape ([12]; 31 g ai/ha)
0: Plant response rating, Wheat ([2]; 16 g ai/ha) | Plant response rating, Johnsongrass ([14]; 16 g ai/ha)
95: Plant response rating, Kochia (kochia (Kochia scoparia); 62 g ai/ha) | Plant response rating, Kochia (kochia (Kochia scoparia); 125 g ai/ha) | Plant response rating, Pigweed ([15]; 31 g ai/ha)
65: Plant response rating, Chickweed ([10]; 125 g ai/ha)
40: Plant response rating, Ragweed ([7]; 125 g ai/ha) | Plant response rating, Galium ([8]; 16 g ai/ha) | Plant response rating, Morningglory ([11]; 31 g ai/ha) | Plant response rating, Morningglory ([11]; 62 g ai/ha)
72 to 74 °C: melting point
90: Plant response rating, Kochia (kochia (Kochia scoparia); 16 g ai/ha) | Plant response rating, Kochia (kochia (Kochia scoparia); 31 g ai/ha) | Plant response rating, Waterhemp ([4]; 125 g ai/ha)
60: Plant response rating, Morningglory ([11]; 125 g ai/ha) | Plant response rating, Pigweed ([15]; 62 g ai/ha)
50: Plant response rating, Chickweed ([10]; 62 g ai/ha)
20: Plant response rating, Velvetleaf ([1]; 62 g ai/ha) | Plant response rating, Crabgrass, Large ([9]; 125 g ai/ha)
80: Plant response rating, Waterhemp ([4]; 31 g ai/ha) | Plant response rating, Galium ([8]; 62 g ai/ha) | Plant response rating, Oilseed Rape ([12]; 125 g ai/ha) | Plant response rating, Pigweed ([15]; 125 g ai/ha)
